The values that follow come from PMC3971408, “Inhibition of triosephosphate isomerase by phosphoenolpyruvate in the feedback-regulation of glycolysis” (Open Biology, 2014).

One assay addresses T1, human TPIIle170Thr (Homo sapiens, UniProt P60174, I171T).
T1 construct: gene TPI1; 6x-histidine tagged human TPI
The assay is described as follows: enzyme-coupled activity assay with PEP titration; thermal shift ΔTm […]°C. Format: biochemical.

The target in another assay is T2, human TPIIle170Val (Homo sapiens, UniProt P60174, I171V).
T2 construct: gene TPI1; 6x-histidine tagged human TPI
The assay is described as above. Format: biochemical.

In assay [1] the target is T3, human triosephosphate isomerase (TPI) (Homo sapiens, UniProt P60174).
T3 construct: gene TPI1; 6x-histidine tagged wild-type human TPI
The assay is described as follows: enzyme-coupled activity assay with PEP titration (IC50 […]); thermal shift ΔTm […]°C. It counts as biochemical.

The target of assay [2] is T4, triosephosphate isomerase (TPI) (Oryctolagus cuniculus, UniProt P00939).
T4 construct: gene TPI1; Native rabbit muscle TPI (Sigma); homodimer, 246 of 250 amino acids modelled
The assay is described as follows: co-crystal structure at […] Å. Format: binding.

By IC50 is commonly meant the concentration that gives 50% inhibition. A word on the Ki: it is a measure of affinity in units of concentration, obtained from inhibition or displacement.

T3 sequence (P60174 2-249): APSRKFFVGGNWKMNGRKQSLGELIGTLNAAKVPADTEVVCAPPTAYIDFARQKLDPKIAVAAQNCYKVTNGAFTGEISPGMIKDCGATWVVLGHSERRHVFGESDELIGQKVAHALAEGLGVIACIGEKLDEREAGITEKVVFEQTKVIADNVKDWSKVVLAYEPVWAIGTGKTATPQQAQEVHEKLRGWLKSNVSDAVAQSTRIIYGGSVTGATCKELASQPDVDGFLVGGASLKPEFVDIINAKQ
T2 sequence (P60174 2-249 I171V): as the sequence (P60174 2-249) above, with I170V counted along it
T4 sequence (P00939 2-249): as the sequence (P60174 2-249) above, with Q19K, S20N, G26T, A118S counted along it
T1 sequence (P60174 2-249 I171T): as the sequence (P60174 2-249) above, with I170T counted along it

Turning to `C=C(OP(=O)(O)O)C(=O)O` [PEP, phosphoenolpyruvate], the IC50 at human TPIIle170Thr came out at 1540 µM; at human TPIIle170Val, 1930 µM. Also, in assay [1], the Ki worked out at 230 µM. The “co-crystal structure at 1.55 Å” value in assay [2] is “The electron density map gave a clearly defined and unambiguous shape for PEP bound to the active sites”.
